Starred links: 1 amine or outer side, 2 acyl side, 3 side chain; linkers in the order of their positions; H or OH if unused. Positions of bridges follow the written chain, without caps; N, C: chain ends. Non-standard residues stand in square brackets, D forms with d. Residues, ends and D or L forms follow the SMILES beside them. ξ: configuration not given here. *: point of attachment. Adamantane1carbonyl = O=C(C12CC3CC(CC(C3)C1)C2)*; X18 = CC(NC(=O)/C=C/c1ccco1)C(N[*:1])C(=O)[*:2]; Propanoyl(3-SO2Ph) = O=C(CCS(=O)(=O)c1ccccc1)*; X29 = COCCOCCOCC(=O)NC(C)C(N[*:1])C(=O)[*:2]; ξAbu(βξ-NH2) = CC(N[*:3])C(N[*:1])C(=O)[*:2]; Phac(3-amino) = O=C(Cc1cccc(N[*:1])c1)[*:2]; ξAbu(3ξ-NH-βAla) = CC(NC(=O)CCN)C(N)C(=O)O; X4 = CNCC(=O)NC(C)C(N[*:1])C(=O)[*:2]; Pentadecanoyl = CCCCCCCCCCCCCCC(=O)*; ξAsp(βξ-Me) = CC(C(=O)O)C(N)C(=O)O; X13 = O=C(CCCCCCCCCCOc1ccccc1)*; ξAbu(3ξ-NH2) = CC(N)C(N)C(=O)O; Decanoyl = CCCCCCCCCC(=O)*; Octanoyl = CCCCCCCC(=O)*; Pip = O=C(O)[CH]1CCCCN1; Hexanoyl = CCCCCC(=O)*
Test system: Staphylococcus aureus (MSSA)
Conditions: 24 h
Outline: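 Broth microdilution MIC per NCCLS M7-A6 with doubling serial dilutions, in cation-adjusted Mueller-Hinton broth supplemented with 0.625 mM calcium.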

MIC [µg/mL]	SMILES
1	CC(C)C1NC(=O)C(C(C)N)NC(=O)CNC(=O)C(CC(=O)O)NC(=O)CNC(=O)C(CC(=O)O)NC(=O)C(C(C)C(=O)O)NC(=O)C2CCCCN2C(=O)C(NC(=O)C(CC(=O)O)NC(=O)CCCCCCCCCCOc2ccccc2)C(C)NC(=O)C2CCCN2C1=O (stereo not drawn) [Compound 333, (11-(Phenoxy)Undecanoyl)-Amphomycin] (X13-D[ξAbu(βξ-NH2)][Pip][ξAsp(βξ-Me)]DGDG[ξAbu(3ξ-NH2)]VP; lactam 2-C; configuration not given here)
0.5	CCCCCCCCCCCCOc1cccc2ccc(C(=O)NC(CC(=O)O)C(=O)NC3C(=O)N4CCCCC4C(=O)NC(C(C)C(=O)O)C(=O)NC(CC(=O)O)C(=O)NCC(=O)NC(CC(=O)O)C(=O)NCC(=O)NC(C(C)N)C(=O)NC(C(C)C)C(=O)N4CCCC4C(=O)NC3C)nc12 (stereo not shown) [Compound 339, (8-Dodecyloxy-Quinoline-2-Carbonyl)-Amphomycin]
>64	CCCCCCCCCCCCCCC(=O)NC(CC(=O)O)C(=O)NC1C(=O)N2CCCCC2C(=O)NC(C(C)C(=O)O)C(=O)NC(CC(=O)O)C(=O)NCC(=O)NC(CC(=O)O)C(=O)NCC(=O)NC(C(C)NC(=O)[C@@H](N)Cc2ccccc2)C(=O)NC(C(C)C)C(=O)N2CCCC2C(=O)NC1C (stereo partly shown) [Compound 341, C15-Amphomycin-9-Phe]
>64	CCCCCCCCCC(=O)N(C)CC(=O)NC(CC(=O)O)C(=O)NC1C(=O)N2CCCCC2C(=O)NC(C(C)C(=O)O)C(=O)NC(CC(=O)O)C(=O)NCC(=O)NC(CC(=O)O)C(=O)NCC(=O)NC(C(C)N)C(=O)NC(C(C)C)C(=O)N2CCCC2C(=O)NC1C (stereo not shown) [Compound 344, C10-Sar-Amphomycin]
64	CCCCCCCCCCCCCC(=O)N(C)CC(=O)NC(CC(=O)O)C(=O)NC1C(=O)N2CCCCC2C(=O)NC(C(C)C(=O)O)C(=O)NC(CC(=O)O)C(=O)NCC(=O)NC(CC(=O)O)C(=O)NCC(=O)NC(C(C)N)C(=O)NC(C(C)C)C(=O)N2CCCC2C(=O)NC1C (stereo not shown) [Compound 345, C14-Sar-Amphomycin]
>64	CCCCCCCC(=O)N(C)CC(=O)NC(CC(=O)O)C(=O)NC1C(=O)N2CCCCC2C(=O)NC(C(C)C(=O)O)C(=O)NC(CC(=O)O)C(=O)NCC(=O)NC(CC(=O)O)C(=O)NCC(=O)NC(C(C)N)C(=O)NC(C(C)C)C(=O)N2CCCC2C(=O)NC1C (stereo not shown) [Compound 346, C8-Sar-Amphomycin]
>64	CCCCCCCCCCCCCCC(=O)NC(CC(=O)O)C(=O)NC1C(=O)N2CCCCC2C(=O)NC(C(C)C(=O)O)C(=O)NC(CC(=O)O)C(=O)NCC(=O)NC(CC(=O)O)C(=O)NCC(=O)NC(C(C)NC(=O)CCCCCCCCCCOc2ccccc2)C(=O)NC(C(C)C)C(=O)N2CCCC2C(=O)NC1C (stereo not drawn) [Compound 348, C15-Amphomycin-9-(11-Phenoxyundecanoyl)] (Pentadecanoyl-D[ξAbu(βξ-NH2)][Pip][ξAsp(βξ-Me)]DGDG[ξAbu(βξ-NH2)](X13)VP; lactam 2-C; configuration not given here)
64	CCCCCCCCCCCCCCC(=O)NC(CC(=O)O)C(=O)NC1C(=O)N2CCCCC2C(=O)NC(C(C)C(=O)O)C(=O)NC(CC(=O)O)C(=O)NCC(=O)NC(CC(=O)O)C(=O)NCC(=O)NC(C(C)NC(=O)CCS(=O)(=O)c2ccccc2)C(=O)NC(C(C)C)C(=O)N2CCCC2C(=O)NC1C (stereo not drawn) [Compound 350, C15-Amphomycin-9-(3-(Benzenesulfonyl)Propionoyl)] (Pentadecanoyl-D[ξAbu(βξ-NH2)][Pip][ξAsp(βξ-Me)]DGDG[ξAbu(βξ-NH2)](Propanoyl(3-SO2Ph))VP; lactam 2-C; configuration not given here)
>64	CCCCCCCC(=O)NCC(=O)NC(CC(=O)O)C(=O)NC1C(=O)N2CCCCC2C(=O)NC(C(C)C(=O)O)C(=O)NC(CC(=O)O)C(=O)NCC(=O)NC(CC(=O)O)C(=O)NCC(=O)NC(C(C)N)C(=O)NC(C(C)C)C(=O)N2CCCC2C(=O)NC1C (stereo not drawn) [Compound 359, C8-Gly-Amphomycin] (Octanoyl-GD[ξAbu(βξ-NH2)][Pip][ξAsp(βξ-Me)]DGDG[ξAbu(3ξ-NH2)]VP; lactam 3-C; configuration not given here)
>64	CCCCCCCCCC(=O)NCC(=O)NC(CC(=O)O)C(=O)NC1C(=O)N2CCCCC2C(=O)NC(C(C)C(=O)O)C(=O)NC(CC(=O)O)C(=O)NCC(=O)NC(CC(=O)O)C(=O)NCC(=O)NC(C(C)N)C(=O)NC(C(C)C)C(=O)N2CCCC2C(=O)NC1C (stereo not drawn) [Compound 360, C10-Gly-Amphomycin] (Decanoyl-GD[ξAbu(βξ-NH2)][Pip][ξAsp(βξ-Me)]DGDG[ξAbu(3ξ-NH2)]VP; lactam 3-C; configuration not given here)
>64	CCCCCCCC(=O)Nc1cccc(CC(=O)NC(CC(=O)O)C(=O)NC2C(=O)N3CCCCC3C(=O)NC(C(C)C(=O)O)C(=O)NC(CC(=O)O)C(=O)NCC(=O)NC(CC(=O)O)C(=O)NCC(=O)NC(C(C)N)C(=O)NC(C(C)C)C(=O)N3CCCC3C(=O)NC2C)c1 (stereo not drawn) [Compound 361, C8-(M-Apa)-Amphomycin] (Octanoyl-[Phac(3-amino)]D[ξAbu(βξ-NH2)][Pip][ξAsp(βξ-Me)]DGDG[ξAbu(3ξ-NH2)]VP; lactam 3-C; configuration not given here)

The remaining lines, values behind:

SMILES	MIC [µg/mL]
CC(C)C1NC(=O)C(C(C)N)NC(=O)CNC(=O)C(CC(=O)O)NC(=O)CNC(=O)C(CC(=O)O)NC(=O)C(C(C)C(=O)O)NC(=O)C2CCCCN2C(=O)C(NC(=O)C(CC(=O)O)NC(=O)C23CC4CC(CC(C4)C2)C3)C(C)NC(=O)C2CCCN2C1=O (stereo not drawn) [Compound 336] (Adamantane1carbonyl-D[ξAbu(βξ-NH2)][Pip][ξAsp(βξ-Me)]DGDG[ξAbu(3ξ-NH2)]VP; lactam 2-C; configuration not given here)	>64
CCCCCCCCCCCCCCC(=O)NC(CC(=O)O)C(=O)NC1C(=O)N2CCCCC2C(=O)NC(C(C)C(=O)O)C(=O)NC(CC(=O)O)C(=O)NCC(=O)NC(CC(=O)O)C(=O)NCC(=O)NC(C(C)NC(=O)CCCCCCCCCCCCCC)C(=O)NC(C(C)C)C(=O)N2CCCC2C(=O)NC1C (stereo not shown) [Compound 342, C15-Amphomycin-9-C15]	>64
CCCCCCCCCCCCCCC(=O)NC(CC(=O)O)C(=O)NC1C(=O)N2CCCCC2C(=O)NC(C(C)C(=O)O)C(=O)NC(CC(=O)O)C(=O)NCC(=O)NC(CC(=O)O)C(=O)NCC(=O)NC(C(C)NC(=O)COCCOCCOC)C(=O)NC(C(C)C)C(=O)N2CCCC2C(=O)NC1C (stereo not drawn) [Compound 343, C15-Amphomycin-9-([2-(2-Methoxy-Ethoxy)-Ethoxy]-Acetyl)] (Pentadecanoyl-D[ξAbu(βξ-NH2)][Pip][ξAsp(βξ-Me)]DGDG[X29]VP; lactam 2-C; configuration not given here)	64
CCCCCCCCCCCCCCC(=O)NC(CC(=O)O)C(=O)NC1C(=O)N2CCCCC2C(=O)NC(C(C)C(=O)O)C(=O)NC(CC(=O)O)C(=O)NCC(=O)NC(CC(=O)O)C(=O)NCC(=O)NC(C(C)NC(=O)CCCCCCCCCCC)C(=O)NC(C(C)C)C(=O)N2CCCC2C(=O)NC1C (stereo not shown) [Compound 347, C15-Amphomycin-9-C12]	>64
CCCCCCCCCCCCCCC(=O)NC(CC(=O)O)C(=O)NC1C(=O)N2CCCCC2C(=O)NC(C(C)C(=O)O)C(=O)NC(CC(=O)O)C(=O)NCC(=O)NC(CC(=O)O)C(=O)NCC(=O)NC(C(C)NC(=O)/C=C/c2ccco2)C(=O)NC(C(C)C)C(=O)N2CCCC2C(=O)NC1C (stereo not drawn) [Compound 349, C15-Amphomycin-9-(3-Furan-2-yl-Acryloyl)] (Pentadecanoyl-D[ξAbu(βξ-NH2)][Pip][ξAsp(βξ-Me)]DGDG[X18]VP; lactam 2-C; configuration not given here)	64
CCCCCCCCCCCCCCC(=O)NC(CC(=O)O)C(=O)NC1C(=O)N2CCCCC2C(=O)NC(C(C)C(=O)O)C(=O)NC(CC(=O)O)C(=O)NCC(=O)NC(CC(=O)O)C(=O)NCC(=O)NC(C(C)NC(=O)CCC(=O)O)C(=O)NC(C(C)C)C(=O)N2CCCC2C(=O)NC1C (stereo not shown) [Compound 352, C15-Amphomycin-9-Suc]	>64
CCCCCCCCCCCCCCC(=O)NC(CC(=O)O)C(=O)NC1C(=O)N2CCCCC2C(=O)NC(C(C)C(=O)O)C(=O)NC(CC(=O)O)C(=O)NCC(=O)NC(CC(=O)O)C(=O)NCC(=O)NC(C(C)NC(=O)[C@@H]2CCCN2C(=O)[C@@H](N)CCCCN)C(=O)NC(C(C)C)C(=O)N2CCCC2C(=O)NC1C (stereo partly shown) [Compound 353, C15-Amphomycin-9-Pro-Lys]	>64
CC(C)C1NC(=O)C(C(C)NC(=O)CCN)NC(=O)CNC(=O)C(CC(=O)O)NC(=O)CNC(=O)C(CC(=O)O)NC(=O)C(C(C)C(=O)O)NC(=O)C2CCCCN2C(=O)C(NC(=O)C(N)CC(=O)O)C(C)NC(=O)C2CCCN2C1=O (stereo not drawn) [Compound 355, Amphomycin-9-(β-Ala)] (H-D[ξAbu(βξ-NH2)][Pip][ξAsp(βξ-Me)]DGDG[ξAbu(3ξ-NH-βAla)]VP; lactam 2-C; configuration not given here)	>64
CNCC(=O)NC(C)C1NC(=O)CNC(=O)C(CC(=O)O)NC(=O)CNC(=O)C(CC(=O)O)NC(=O)C(C(C)C(=O)O)NC(=O)C2CCCCN2C(=O)C(NC(=O)C(N)CC(=O)O)C(C)NC(=O)C2CCCN2C(=O)C(C(C)C)NC1=O (stereo not drawn) [Compound 356, Amphomycin-9-Sar] (H-D[ξAbu(βξ-NH2)][Pip][ξAsp(βξ-Me)]DGDG[X4]VP; lactam 2-C; configuration not given here)	>64
CCCCCC(=O)NCC(=O)NC(CC(=O)O)C(=O)NC1C(=O)N2CCCCC2C(=O)NC(C(C)C(=O)O)C(=O)NC(CC(=O)O)C(=O)NCC(=O)NC(CC(=O)O)C(=O)NCC(=O)NC(C(C)N)C(=O)NC(C(C)C)C(=O)N2CCCC2C(=O)NC1C (stereo not drawn) [Compound 358, C6-Gly-Amphomycin] (Hexanoyl-GD[ξAbu(βξ-NH2)][Pip][ξAsp(βξ-Me)]DGDG[ξAbu(3ξ-NH2)]VP; lactam 3-C; configuration not given here)	>64

Same assay, conditions: S. aureus (MSSA), CAMHB supplemented with 0.625 mM calcium, 24 hours at about 37° C.; a range = compound tested multiple times

SMILES	MIC [µg/mL]
CCCCCCCCCCCCCCC(=O)NC(CC(=O)O)C(=O)NC1C(=O)N2CCCCC2C(=O)NC(C(C)C(=O)O)C(=O)NC(CC(=O)O)C(=O)NCC(=O)NC(CC(=O)O)C(=O)NCC(=O)NC(C(C)NC(=O)CCCc2cc3ccc4cccc5ccc(c2)c3c45)C(=O)NC(C(C)C)C(=O)N2CCCC2C(=O)NC1C (stereo not shown) [Compound 351, C15-Amphomycin-9-(4-(Pyren-2-yl)Butyroyl)]	>64
